Legend:
Assay type in all cases: cell-based, human
p53 [1] = experiment: High resolution profiling (P-FILM) of p53 in MDA MB-231 cells; conditions: 100 μg/mL
Experimental: Both p53 and pRb contain multiple phosphorylation sites, and evaluating each site separately provides a more accurate indication of each protein's potential function. Therefore, a high resolution functional profiling of the proteins was performed using P-FILM technology (20/20 Gene Systems, Inc.).
The same protein samples as those used for PDVF membrane blotting were used. Ten μg of each protein sample of MDA MB-231 cells, and in some cases MDA MB-468 and MCF-7 cells, treated with 100 μg /mL of pentamer or DMSO-treated controls, were separated by PAGE on 4-20% gradient gels (BioRad). Proteins were transferred on a stack of ten membranes, according to manufacturer's instructions (20/20 Gene Systems, Inc.). The membranes were probed with antibodies recognizing total and phosphorylated p53 (p53Ser6, Ser9, Ser15, Ser20, Ser37, Ser46 and Ser392) at 1:1000 dilution as recommended by the manufacturer (Cell Signaling). The secondary antibody used in all cases was anti-rabbit polyclonal 1:2000 (Amersham). Signals were visualized on BIOMAX MR film (Kodak). The profiling of pRb was done using anti-phospho pRb (Ser780, Ser 795 and Ser 807/811) and anti-pRb polyclonal antibody (Cell Signaling) at a 1:1000 dilution. The secondary antibody used in all cases was anti-rabbit at 1:2000 dilution (Amersham). Image analysis was performed with Kodak 1D image analysis software. Background corrected intensity values were normalized for loading by using GAPDH intensities. Numerical analysis was performed in Excel.

[2] = tested on: SAPK/JNK at Thr183/Tyr185; experiment: LPS multi-well plate phosphorylation screen in MDA MB-231 cells; conditions: 100 μg/mL
Description: (§1) Layered Protein Scanning (LPS) is a method for screening liquid protein samples in a high throughput manner using multi-well plates [Englert, C. R. et al., Cancer Res., 60: 1526-1530, 2000], and conducted by 20/20 Gene Systems, Inc., (Rockville, Md.). In short, cells are lysed and protein extract loaded into the wells of vacuum manifold and transferred through a stack of membranes. From each set of samples, up to five dot blot membranes are generated.
(§2) MDA MB-231 human breast cancer cells were treated, with or without 100 μg/mL pentamer, for 48 and 72 hours. Cells were lysed in LPS/MWP lysis buffer (20/20 Gene Systems, Inc.). Protein concentration was determined using BCA Protein Assay Kit (Pierce, Rockford, Ill.). Ten and 20 μg of each protein sample was loaded in duplicate onto Bio-Dot Microfiltration Apparatus (BioRad, Philadelphia, Pa.) and transferred through a 5-membrane stack as recommended by the manufacturer (20/20 Gene Systems). After the transfer, all of the membranes were biotinylated in 1 mg/mL EZ-Link Sulfo-NHS-Biotin solution in 1×PBS for 10 minutes at room temperature (Pierce).
(§3) Membranes were incubated overnight at 4° C. with the antibodies shown in Table 1 (1:500 or 1:1000 dilution). The following day, membranes were washed in Tris-buffered saline with Tween 20 (0.1%) (TBST buffer) and incubated for 60 minutes at room temperature in a mixture of FluoroLink Cy 5-labeled Streptavidin (1:500, Amersham) and Fluorescein-labeled secondary anti-mouse or anti-rabbit antibody (1:2,000, Molecular Probes, Eugene, Oreg.), followed by washes in TBST. Membranes were dried and scanned on a Typhoon scanner (Amersham), and obtained images were analyzed with InageQuant software (Amersham). Data were plotted in Excel and statistically analyzed in JMP (SAS Institute, Inc., Cary, N.C.). Hierarchical clustering analysis was performed to evaluate segregation of samples into control and treated groups.

FKHR (Ser256) = experiment: as above; conditions: 100 μg/mL, 72 hours, densitometry vs control
Description: as §1, §2, §3

PKC-δ at Ser643 = experiment: as above; conditions: 100 μg/mL
Description: as §1, §2, §3

PKC-θ at Ser 643/676 = experiment: as above; conditions: 100 μg/mL, 72 hrs
Description: as §1, §2, §3

Stat 5 at Tyr 694 = experiment: as above; conditions: 100 μg/mL
Description: as §1, §2, §3

p53 [3] = experiment: as above; conditions: 100 μg/mL
Description: as §1, §2, §3

Cdc2 (Tyr15) = experiment: as above; conditions: 100 μg/mL, densitometry vs control
Description: as §1, §2, §3

[4] = tested on: pRb at Ser 795 and Ser807/811; experiment: as above; conditions: 100 μg/mL
Description: as §1, §2, §3

184B5 cells = experiment: Crystal violet cellular proliferation assay; conditions: 100 μg/mL
Experimental: The 184B5 line is an immortalized, non-tumorogenic cell line derived from primary cultures of HMECs immortalized with benzo(a)pyrene (provided by Dr. M. R. Stampfer) and was maintained in Clonetics mammary epithelial cells medium (MEGM).
One×10^3 cells per well were seeded in 96 well dishes (Coming Costar, Cambridge, Mass.). Primary cultures of HMECs, A1N4 and 184B5 cells were evaluated at two different cell densities (seeded at 1×10^3 and 2×10^3 per well). After 24 hours of cell attachment, cells in triplicate wells were treated with pentamer at a concentration of 100 μg/mL. The cells on the same plate were treated with corresponding controls: (i) media containing DMSO, and (ii) media with no additions.
Cells were treated for 1, 2, 3, 6, 8 and 10 days, but in some cases, the samples were collected at days 2, 3, 4, 7 and 10 post-treatment. Each treatment was conducted in triplicate. Samples were collected at each time point as follows: media was removed and 50 μL of crystal violet solution (0.1% of crystal violet in 0.1 M citric acid solution) was added to each well at room temperature and plates were incubated for 15 minutes, followed by washing with deionized water. […] The optical density (OD) of samples was read at 550 nm on an Ultramark Microplate Imagining System (BioRad, Philadelphia, Pa.). […] Statistical significance was determined using the t test analysis.

Oc1cc(O)c2c(c1)O[C@H](c1ccc(O)c(O)c1)[C@H](O)[C@H]2c1c(O)cc(O)c2c1O[C@H](c1ccc(O)c(O)c1)[C@H](O)[C@H]2c1c(O)cc(O)c2c1O[C@H](c1ccc(O)c(O)c1)[C@H](O)[C@H]2c1c(O)cc(O)c2c1O[C@H](c1ccc(O)c(O)c1)[C@H](O)[C@H]2c1c(O)cc(O)c2c1O[C@H](c1ccc(O)c(O)c1)[C@H](O)C2 [pentamer, pentameric procyanidin]
percentage of p53 phosphorylated at Ser392 decreased, compared to untreated controls (p53 [1]): 53% | phosphorylation of p53 Ser15 residue (p53 [1]; 48 h): slight decreases | phosphorylation of p53 Ser46 (p53 [1]; 48 h): slight decreases | phosphorylation of p53 Ser20 residue (p53 [1]; 48 hrs): decreased | levels of endogenous p53 expression (p53 [1]; 48 hrs, not significant by densitometry): slightly decreased | phosphorylation of p53 Ser20 residue (p53 [1]; 72 hrs): not affected | phosphorylation of p53 Ser392 residue (p53 [1]; both 48 and 72 hrs): significant dephosphorylation | phosphorylation of SAPK/JNK at Thr183/Tyr185 decreased ([2]; 48 hrs): 34% | phosphorylation of SAPK/JNK at Thr183/Tyr185 decreased ([2]; 72 hrs): 26% | phosphorylation of FKHR (Ser256) decreased (FKHR (Ser256)): 63% | phosphorylation of PKC-δ at Ser643 decreased (PKC-δ at Ser643; 48 hrs): 22% | phosphorylation of PKC-δ at Ser643 decreased (PKC-δ at Ser643; 72 hrs): 49% | phosphorylation of PKC-θ at Ser 643/676 decreased (PKC-θ at Ser 643/676): 49% | Stat 5 phosphorylation at Tyr 694 decreased (Stat 5 at Tyr 694; 48 hrs): 28% | Stat 5 phosphorylation at Tyr 694 decreased (Stat 5 at Tyr 694; 72 hrs): 33% | phosphorylation of p53 residues Ser6, Ser9, Ser20 and Ser15 (p53 [3]; LPS): not significantly affected | phosphorylation of p53 (antibody mix at Ser37, 46 and 392) decreased (p53 [3]; post treatment, densitometry vs control): 36% | phosphorylation of Cdc2 (Tyr15) decreased (Cdc2 (Tyr15); 48 hrs): 31% | phosphorylation of Cdc2 (Tyr15) decreased (Cdc2 (Tyr15); 72 hrs): 45% | phosphorylation of pRb at Ser 795 and Ser807/811 decreased ([4]; 48 hrs): 36% | phosphorylation of pRb at Ser 795 and Ser807/811 decreased ([4]; 72 hrs): 40% | day post-treatment at which significant sensitivity to pentamer was exhibited (184B5 cells): 10 days | growth inhibited, in comparison to DMSO-treated controls (184B5 cells): 2.8 fold

Reference: US7371776B2, “Methods and compositions for treating cancer” (Mars, Incorporated, priority 2004, dated 2008)
